Source: patent US20250248979A1, “NOVEL GPX4 INHIBITORS AND USES THEREOF” (THE TRUSTEES OF COLUMBIA UNIVERSITY IN THE CITY OF NEW YORK, priority 2022, published 2025)
In brackets after ≈: the same amount, converted by molar mass. Read-outs that look alike come from different tables or passages of the source.

Experiments:
in vitro [1] = assay type: in vitro ADME, human
Experimental: (§1) […]. The incubation timepoints measured were 0, 5, 10, 15, 30, and 45 minutes. All samples were prepared in duplicate and analyzed by LC-MS/MS.

in vitro [2] = assay type: in vitro ADME, mouse
Experimental: as §1

[3] = Kinetic aqueous solubility
HT-1080 cells = assay: Cellular dose response assay, HT-1080 with and without Fer-1; assay type: cell-based, human
Method in brief: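 1500 cells/well, o/n; 12-pt 2-fold dilns, ±Fer-1 (HT-1080), 0.4% DMSO, n=3 technical; 48 h, 37 °C/5% CO2; CellTiter-Glo lum. Huh7, HLF, HT-1080 grown in DMEM/10% HI-FBS; SK-HEP-1 in EMEM/10% HI-FBS.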

HepG2 cells = assay: Cellular dose response assay, HepG2; assay type: cell-based, human; conditions: Table 7
Excerpt: (§2) HT-1080 (human [Homo sapiens] […] fibrosarcoma), A-673 (human [Homo sapiens] […] Ewing's sarcoma), and SK-HEP-1 (human [Homo sapiens] […] hepatic adenocarcinoma), cells were obtained from ATCC. Huh7 (human [Homo sapiens] […] hepatocellular carcinoma), HLF (human [Homo sapiens] […] hepatocellular carcinoma), HepG2 (human [Homo sapiens] […] hepatocellular carcinoma), cells were obtained from the Cancer Cell Bank at Columbia University Irving Medical Center. HT-1080, A-673, Huh-7, and HLF cells were grown in Dulbecco's Modified Eagle Medium (DMEM) supplemented with 10% heat inactivated fetal bovine serum (HI-FBS), 1% non-essential amino acids, and 1% penicillin streptomycin. HepG2 and SK-HEP-1 cells were grown in Eagle's Minimum Essential Medium (EMEM) supplemented with 10% HI-FBS, and 1% penicillin-streptomycin. All cells were cultured at 37° C. and 5% CO2.
(§3) HT-1080, HepG2, Huh7, HLF, and SK-HEP-1 cells were seeded into opaque white 384-well plates at 1500 cells per well then incubated at 37° C. with 5% CO2 overnight. The next day, compounds of interest were dissolved in DMSO and 12-point 2-fold dilution series were prepared with and without Fer-1. Cells were treated in triplicate (final DMSO concentration of 0.4% in all wells, including DMSO-only control wells) and incubated for a further 48 hours at 37° C. and 5% CO2. Cell viability was evaluated using CellTiter-Glo (Promega G7573) and luminescence was recorded on a Victor 5 plate reader. Data were analyzed in GraphPad Prism 9 and error bars represent standard deviation values for three technical replicates in a representative experiment.

Huh7 cells = assay: Cellular dose response assay, Huh7; assay type: cell-based, human; conditions: Table 7
Excerpt: as §2, §3

HLF cells = assay: Cellular dose response assay, HLF; assay type: cell-based, human; conditions: Table 7
Excerpt: as §2, §3

SK-HEP-1 cells = assay: Cellular dose response assay, SK-HEP-1; assay type: cell-based, human; conditions: Table 7
Excerpt: as §2, §3

GPX4 = target: T1, GPX4 (Homo sapiens, UniProt P36969); assay: GPX4 activity assay in cell lysates (NADPH-coupled); assay type: biochemical; parameters: endogenous in cells; host or cells: A-673 cell lysate; conditions: for GPX4% inhibition at 200 (μM) / GPX4 inhibition: 200 μM
T1 sequence (P36969 1-170 isoform P36969-2): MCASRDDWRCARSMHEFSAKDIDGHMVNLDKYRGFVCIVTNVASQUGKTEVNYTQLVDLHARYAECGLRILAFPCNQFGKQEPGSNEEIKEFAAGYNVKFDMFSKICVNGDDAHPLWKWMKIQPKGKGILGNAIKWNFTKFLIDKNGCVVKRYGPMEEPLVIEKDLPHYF
Method in brief: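 Native GPX4 in lysates of A-673 cells grown with 20 nM sodium selenite; lysate preincubated with compound 45 min at 37 °C in pH 8.0 buffer with 3 mM GSH, 0.5 mM NADPH and glutathione reductase. Reaction started with phosphatidylcholine hydroperoxide; NADPH consumption followed at 340 nm over 25 min; triplicates.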

[4] = compounds alone, Table 7, read-out: IC50 (uM) HT1080^a
[5] = with fer-1, Table 7, read-out: IC50 (uM) HT1080^b
[6] = compounds alone, read-out: IC50 (uM) HEPG2^a
[7] = with fer-1, read-out: IC50 (uM) HEPG2^b
[8] = compounds alone, read-out: IC50 (uM) Huh7^a
[9] = with fer-1, read-out: IC50 (uM) Huh7^b
[10] = compounds alone, read-out: IC50 (uM) HLF^a
[11] = with fer-1, read-out: IC50 (uM) HLF^b
[12] = compounds alone, read-out: IC50 (uM) SKHEP1^a
[13] = with fer-1, read-out: IC50 (uM) SKHEP1^b
[14] = 1% DMSO, Phosphate Buffered Saline pH 7.4, 1 hour, ambient, UV/Vis absorbance

## COc1ccc(N(C(=O)CCl)C(C(=O)NCCc2ccccc2)c2cccs2)cc1Cl (centres unmarked) [ML162, reference compound]
In vitro [1]; human liver microsomes
  Microsome Stability t1/2 (min) human: 0.9 min
In vitro [2]; mouse liver microsomes
  Microsome Stability t1/2 (min) mouse: 1.5 min
[3]; aqueous solubility, Table 9
  Solubility: 3.8 µM (≈ 1.81 µg/mL)

## O=C(CBr)OCCCNC(=O)c1cc2cc(Cl)ccc2[nH]1 [QW-305]
HT-1080 cells; [4]
  IC50: 1.9 µM
HT-1080 cells; [5]
  IC50: 5 µM
HepG2 cells; [6]
  IC50: 1.9 µM
HepG2 cells; [7]
  IC50: 7.2 µM
Huh7 cells; [8]
  IC50: 3.8 µM
Huh7 cells; [9]
  IC50: 26.1 µM
HLF cells; [10]
  IC50: 0.7 µM
HLF cells; [11]
  IC50: 4.3 µM
SK-HEP-1 cells; [12]
  IC50: 2.3 µM
SK-HEP-1 cells; [13]
  IC50: 10.9 µM
GPX4; generation 1, mean ± s.d., n = 3
  GPX4% inhibition at 200 (μM): 88.6 ± 3.1%

## Cn1nc(C(=O)NC(C)(C)COC(=O)CBr)c2ccccc21 [QW-365]
HT-1080 cells; [4]
  IC50: 0.7 µM
HT-1080 cells; [5]
  IC50: 12.2 µM
HepG2 cells; [6]
  IC50: 2.9 µM
HepG2 cells; [7]
  IC50: 18.6 µM
Huh7 cells; [8]
  IC50: 0.8 µM
Huh7 cells; [9]
  IC50: 16.8 µM
HLF cells; [10]
  IC50: 0.5 µM
HLF cells; [11]
  IC50: 8.8 µM
SK-HEP-1 cells; [12]
  IC50: 0.3 µM
SK-HEP-1 cells; [13]
  IC50: 12.1 µM
GPX4; generation 2
  GPX4% inhibition at 200 (μM): 94.5 ± 4.5%

## C[C@]12CC[C@H]3[C@@H](CCC4=CC(=O)CC[C@@]43C)[C@@H]1CC[C@@H]2O [Testosterone, reference compound]
In vitro [1]; pH 7.4, human liver microsomes, read-out: Microsome Stability t1/2 (min) human
  half-life: 9.5 min
In vitro [2]; mouse liver microsomes
  Microsome Stability t1/2 (min) mouse: 5.3 min

## Cn1nc(C(=O)NC(C)(C)COC(=O)CCl)c2cccc(OC(=O)CCl)c21 [QW-360]
HT-1080 cells; [4]
  IC50: 12.7 µM
HT-1080 cells; [5]
  IC50: 46.7 µM
HepG2 cells; [6]
  IC50: 24.8 µM
HepG2 cells; [7]
  IC50: 40.3 µM
Huh7 cells; [8]
  IC50: 9.1 µM
Huh7 cells; [9]
  IC50: 175 µM
HLF cells; [10]
  IC50: 6.7 µM
HLF cells; [11]
  IC50: 27.1 µM
SK-HEP-1 cells; [12]
  IC50: 3.5 µM
SK-HEP-1 cells; [13]
  IC50: 44.4 µM
GPX4
  GPX4 inhibition: complete inhibition
GPX4; generation 2
  GPX4% inhibition at 200 (μM): 101.9 ± 1.5%

## COc1ccc(-c2ccc3c(C(=O)NC(C)(C)COC(=O)CCl)nn(C)c3c2)cc1 [QW-454]
HT-1080 cells; HT1080 + Fer-1, read-out: IC50 (uM) HT1080 + Fer-1
  IC50: 11.5 µM
HT-1080 cells; HT1080, without Fer-1, read-out: IC50 (uM) HT1080
  IC50: 0.94 µM
HT-1080 cells; RSL3 as control
  ferroptosis induction / potency in HT-1080 cells, result in words: sub-molar range cellular activities and decreased ferroptosis selectivity
HT-1080 cells; ferroptosis selectivity, HT1080 + Fer-1 vs HT1080
  Selectivity: 12.2
In vitro [1]; human, microsomes
  Microsome Stability t1/2 (min) human: 1.8 min
In vitro [2]; mouse, microsomes
  Microsome Stability t1/2 (min) mouse: 1.7 min
[3]; [14]
  Solubility: 2.9 µM (≈ 1.25 µg/mL)
[3]; aqueous solubility, Table 9
  Solubility: 2.9 µM (≈ 1.25 µg/mL)
GPX4
  GPX4% inhibition at 5 μM: 86.8 ± 2.6%

## CC(C)Oc1ccc(-c2ccc3c(C(=O)NC(C)(C)COC(=O)CCl)nn(C)c3c2)cc1 [QW-506]
In vitro [1]; human, microsomes
  Microsome Stability t1/2 (min) human: 2.9 min
In vitro [2]; mouse, microsomes
  Microsome Stability t1/2 (min) mouse: 1.7 min
[3]; [14]
  Solubility: 1.7 µM (≈ 0.779 µg/mL)
[3]; aqueous solubility, Table 9
  Solubility: 1.7 µM (≈ 0.779 µg/mL)
GPX4
  GPX4% inhibition at 5 μM: 75.4 ± 3.9%

## Cn1nc(C(=O)NC(C)(C)COC(=O)CCl)c2cc(Br)ccc21 [QW-356]
HT-1080 cells; [4]
  IC50: 3.1 µM
HT-1080 cells; [5]
  IC50: 58.3 µM
HepG2 cells; [6]
  IC50: 6.7 µM
HepG2 cells; [7]
  IC50: 73.5 µM
Huh7 cells; [8]
  IC50: 2.5 µM
Huh7 cells; [9]
  IC50: 112 µM
HLF cells; [10]
  IC50: 1.1 µM
HLF cells; [11]
  IC50: 60.9 µM
SK-HEP-1 cells; [12]
  IC50: 0.8 µM
SK-HEP-1 cells; [13]
  IC50: 81 µM
GPX4
  GPX4 inhibitory activity, result in words: significant improvement on GPX4 inhibition over QW-314 and RSL3
  GPX4 inhibition: complete inhibition
GPX4; generation 2
  GPX4% inhibition at 200 (μM): 105.7 ± 2.5%

## CC(C)(COC(=O)CCl)NC(=O)c1n[nH]c2cc(Br)ccc12 [QW-313]
HT-1080 cells; [4]
  IC50: 20.4 µM
HT-1080 cells; [5]
  IC50: 58.8 µM
HepG2 cells; [6]
  IC50: 12.8 µM
HepG2 cells; [7]
  IC50: 63.1 µM
Huh7 cells; [8]
  IC50: 17 µM
Huh7 cells; [9]
  IC50: 58.2 µM
SK-HEP-1 cells; [12]
  IC50: 47 µM
SK-HEP-1 cells; [13]
  IC50: 63.7 µM
In vitro [1]; human, microsomes
  Microsome Stability t1/2 (min) human: 9.7 min
In vitro [2]; mouse, microsomes
  Microsome Stability t1/2 (min) mouse: 12.1 min
[3]; aqueous solubility, Table 9
  Solubility: 47 µM (≈ 18.3 µg/mL)
GPX4; 20 μM, generation 2
  GPX4% inhibition at 20 (μM): 53.8 ± 12.1%
GPX4
  GPX4 inhibition: complete inhibition
GPX4; generation 2
  GPX4% inhibition at 200 (μM): 97.6 ± 2.5%
